Where two headings read alike, the source gives them in different places.

Data on one molecule can be found in patent EP0249194A2, “Topical prostaglandin formulations” (AMERICAN CYANAMID COMPANY, priority 1986, dated 1987).

Series [1] is described as follows: Stability of viprostol compositions on storage in glass (ampules). Format: physicochemical.
For a further series, the system named is male pattern baldness. In words: Clinical study of hair growth after once-daily topical application to the scalp, hair counts. The series is classed as in vivo, healthy, male volunteers. The conditions noted are these: topical application of small amounts; mean hair counts over a six-month period (Figs. 1-5) and three-month chart. The protocol:
Clinical studies using healthy, male volunteers (age 18-65) with vertex baldness and some recession of front hairline were performed using viprostol in Formulation A, above-described. The volunteers were not hypertensive. […] The hairs on such location were counted at the beginning of the study, and recounts were done periodically during the course of the study. All hair, including unpigmented vellus and pigmented intermediate and terminal hair was, counted, except as indicated hereinbelow. The amount of viprostol applied was approximately 120 mcg, which amount was applied once daily to the bald and balding areas of the scalp. The viprostol was contained in the above-described Formulation A. Approximately 0.3 ml of such formulation was topically to the scalp with an index finger and rubbing action. The scalp was clean (recently shampooed) and dry at application. The chart below summarizes the results after three months of study.
Additionally, as the study proceeded beyond three months, the results wre charted as mean hair counts over time.

As to `C=CC(O)(CC=CC1C(O)CC(=O)C1CC=CCCCC(=O)OC)CCCC` (racemic) [viprostol, Methyl (±)-[11α,5Z(5E), 13E, 16R and 16S]-16 ethenyl-11,16-dihydroxy-9-oxoprosta-5,13-dien-1-oate], in series [1] (Initial), the “Stability of Viprostol Compositions (% of Initial Potency)” value is on record as 100%. The remaining at 1440 h in series [1] (neat bulk liquid, 23°C 2 months, read-out: Stability of Viprostol Compositions (% of Initial Potency)) was 99%; in series [1] (neat bulk liquid, 42°C 2 months, read-out: Stability of Viprostol Compositions (% of Initial Potency)), 83%; in series [1] (neat bulk liquid, 56°C 2 months, read-out: Stability of Viprostol Compositions (% of Initial Potency)), 0%. In series [1] (neat bulk liquid, 23°C 6 months, read-out: Stability of Viprostol Compositions (% of Initial Potency)), the remaining at 4320 h stood at 87%. Moreover, the remaining at 8760 h in series [1] (neat bulk liquid, 23°C 12 months, read-out: Stability of Viprostol Compositions (% of Initial Potency)) is 20%. Besides, in series [1] (neat bulk liquid, 23°C 18 months, read-out: Stability of Viprostol Compositions (% of Initial Potency)), the remaining at 13152 h is 12%. Besides, the remaining at 720 h in series [1] (neat bulk liquid, 56°C 1 month, read-out: Stability of Viprostol Compositions (% of Initial Potency)) was 32%. Further, the hair growth result in the series on male pattern baldness is “caused hair growth”.
